For series [1], the system named is glyphosate resistant strain of Italian ryegrass. Description: Control of glyphosate resistant Italian ryegrass, piperonyl butoxide pre-treatment then glyphosate (Western Australia). Type of series: in vivo. To be noted: glyphosate without piperonyl butoxide; 8 replicated trials; FIG. 1.
A further series deals with white fly. To be noted: with insecticides.
The test system of another series is plant crop. To be noted: optimised dose rate. As to the method:
Preferably, the time delay is from 1 to 24 hours, preferably from 2 to 8 hours. However, the time delay required varies with temperature and dose rate. […] (these time delays assume an optimised dose rate).

Another series concerns plants. To be noted: applied alone, in the absence of any active ingredients; cited from earlier work.
Series [2] concerns clodinafop resistant strains of blackgrass. Here is the method:
Further experiments were carried out using clodinafop resistant strains of blackgrass.
Daytime temperature of 11° C. Night time temperature of 8° C.

The subject of the next series is pollen beetle. To be noted: with insecticides.
Setting [3] is: piperonyl butoxide 320 grams per ha then clodinafop 250 g ai/ha, daytime 11° C., night 8° C., FIG. 9.

Results on two molecules are retold here after patent US20180153168A1, “A PRIMER FOR PESTICIDES” (PANGAEA AGROCHEMICALS LIMITED, priority 2015, published 2018).

Where two headings read alike, the source gives them in different places.

For the molecule `O=C(O)CNCP(=O)(O)O` [glyphosate], in series [1], the level of control result was “minimal”.

Take `CCCCOCCOCCOCc1cc2c(cc1CCC)OCO2` [piperonyl butoxide]: the results for the “optimum delay for application” value in the series on white fly and in the series on pollen beetle were about 8 h and “approximately 1 hour”, respectively. In addition, the optimum time delay with plant crop (11° C.) stood at 8 h; in the series on plant crop (15° C.) it was 4 h; in the series on plant crop (25° C.) it was 2.5 h. The toxicity to plants entry in the series on plants is on record as “not detectable”. The same molecule showed an optimum delay in series [2] (early autumn trials, ambient temperature of the order of 18° C.) of 2 to 8 h. In addition, in series [2] (setting [3]), the “delays showing high levels of control” value was in the range of 8 to 16 h. Also, in series [2] (setting [3]), the “optimum delay for efficacy” value is on record as “approximately 8 hours”.
